Results on 59 compounds are retold here after patent publication US7825264B2, “Substituted heterocycles, their use as medicament, and pharmaceutical preparations comprising them” (sanofi-aventis, priority 2005, dated 2010).

The target of this assay is T1, Human Kv1.5 channels (Homo sapiens, UniProt P22460).
T1 construct: expressed in transfected cells; host or cells: Xenopus laevis oocytes injected with RNA synthesized in vitro
T1 sequence (P22460 whole entry): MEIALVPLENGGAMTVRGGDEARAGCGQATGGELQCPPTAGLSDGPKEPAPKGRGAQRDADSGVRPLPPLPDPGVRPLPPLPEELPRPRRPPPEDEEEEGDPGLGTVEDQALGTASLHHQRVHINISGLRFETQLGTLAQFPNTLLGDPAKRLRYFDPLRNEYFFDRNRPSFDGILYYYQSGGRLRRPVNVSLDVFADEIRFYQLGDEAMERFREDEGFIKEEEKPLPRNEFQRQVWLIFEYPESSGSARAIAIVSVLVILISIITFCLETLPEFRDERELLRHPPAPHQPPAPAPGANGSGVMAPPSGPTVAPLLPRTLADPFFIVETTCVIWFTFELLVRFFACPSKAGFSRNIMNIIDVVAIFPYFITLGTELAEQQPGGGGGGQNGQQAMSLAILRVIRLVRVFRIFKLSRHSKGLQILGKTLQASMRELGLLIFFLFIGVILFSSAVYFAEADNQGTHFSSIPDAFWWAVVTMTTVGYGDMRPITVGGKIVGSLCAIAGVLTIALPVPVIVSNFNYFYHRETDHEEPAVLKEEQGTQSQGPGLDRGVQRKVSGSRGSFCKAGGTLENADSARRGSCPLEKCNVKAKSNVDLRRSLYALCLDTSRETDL
Nature of the assay: Activity on the Kv1.5 channel: two-microelectrode voltage clamp on Xenopus oocytes expressing Kv1.5. Format: cell-based. As to conditions: human Kv1.5 expressed in Xenopus oocytes, room temperature, Hill equation; read-out: Kv1.5 IC-50. On the procedure: Determination of the Activity on the Kv1.5 Channel
Human Kv1.5 channels were expressed in xenopus oocytes. For this purpose, firstly oocytes were isolated from Xenopus laevis and defolliculated. Kv1.5-encoding RNA synthesized in vitro was then injected into these oocytes. After Kv1.5 protein expression for 1-7 days, Kv1.5 currents were measured on the oocytes using the two-microelectrode voltage clamp technique. The Kv1.5 channels were in this case usually activated with voltage jumps lasting 500 ms to 0 mV and 40 mV. A solution of the following composition flowed through the bath: NaCl 96 mM, KCl 2 mM, CaCl2 1.8 mM, MgCl2 1 mM, HEPES 5 mM (titrated to pH 7.4 with NaOH). These experiments were carried out at room temperature. The following were employed for data acquisition and analysis: Geneclamp amplifier (Axon Instruments, Foster City, USA) and MacLab D/A converter and software (ADInstruments, Castle Hill, Australia). The substances of the invention were tested by adding them in various concentrations to the bath solution. The effects of the substances were calculated as percent inhibition of the Kv1.5 control current which was obtained when no substance was added to the solution. The data were then extrapolated using the Hill equation in order to determine the inhibitory concentrations IC50 for the respective substances.
Turning to `N#Cc1ccc(O[C@H](c2ccc(F)c(F)c2)[C@@H](c2ccc(F)cc2)N2CCCC2=O)cc1` (racemic) [Example 102], the IC50 was 5.4 µM.

In the case of `CO[C@@H](c1ccc(F)cc1)[C@H](c1ccccc1)N1CCCC1=O` (racemic) [Example 88], the IC50 worked out at 4 µM.

`COc1ccc(CO[C@@H](c2ccccc2)[C@@H](c2ccccc2)N2CCCCC2=O)cc1` [Example 103]: the IC50 was found to be 6.6 µM.

Turning to `O=S1(=O)CCCN1[C@H](c1ccccc1)[C@@H](OCC1CC1)c1ccccc1` [Example 52], the IC50 turned out to be 2 µM.

For the compound `CCCCO[C@H](c1ccc(Cl)cc1)[C@H](c1ccccc1)N1CCCC1=O` (racemic) [Example 56], the IC50 worked out at 0.8 µM.

In the case of `O=C1CCCN1[C@H](c1ccccc1)[C@H](OCC1CC1)c1ccc(F)cc1` (racemic) [Example 21], the IC50 amounted to 0.8 µM.

On to `CCCOC(c1ccc(OC)cc1)C(c1ccccc1)N1CCCC1=O` (centres unmarked) [Example 23], for which the IC50 came to 0.65 µM.

In the case of `C#CCO[C@H](c1ccc(F)c(F)c1)[C@H](c1ccc(F)cc1)N1CCCC1=O` (racemic) [Example 38], the IC50 was determined as 0.7 µM.

On to `O=C1CCCN1[C@@H](c1ccc(F)cc1)[C@@H](OCC1CC1)c1ccnc2ccccc12` (racemic) [Example 84], for which the IC50 amounted to 2.4 µM.

With `O=C1CCCN1[C@@H](c1ccc(F)cc1)[C@H](OCCCC(F)(F)F)c1cccnc1` (racemic) [Example 2, 1-[(1R′,2S′)-1-(4-Fluorophenyl)-2-pyridin-3-yl-2-(4,4,4-trifluorobutoxy)-ethyl]pyrrolidin-2-one], the IC50 came to 6 µM.

`O=C1CCCN1[C@@H](c1ccc(F)cc1)[C@H](OCCCC(F)(F)F)c1ccc(F)c(F)c1` (racemic) [Example 34]: the IC50 turned out to be 1 µM.

Regarding `CCCO[C@H](c1ccccc1)[C@@H](c1ccccc1)N1CCCC1=O` (racemic) [Example 19], the IC50 was found to be 0.3 µM.

With `O=C1CCCN1[C@@H](c1ccccc1)[C@@H](OCc1ccccc1)c1ccc(F)cc1` (racemic) [Example 53], the IC50 stood at 1.8 µM.

For the compound `C[C@@](c1ccccc1)([C@H](OCC1CC1)c1ccccc1)N1CCCC1=O` (racemic) [Example 31], the IC50 turned out to be 1.4 µM.

Consider `COc1ccc(CO[C@H](c2ccc(F)cc2)[C@@H](c2ccccc2)N2CCCC2=O)cc1` (racemic) [Example 95], for which the IC50 was found to be 5.2 µM.

As for `O=C1CCCN1[C@@H](c1ccc(F)cc1)[C@H](OCC1CC1)c1ccc(F)cc1` (racemic) [Example 117], the IC50 amounted to 0.3 µM.

`C#CCO[C@H](c1ccc(F)c(F)c1)[C@H](c1ccc(F)cc1)N1CCCCC1=O` (racemic) [Example 30]: the IC50 was determined as 1.1 µM.

With `CO[C@H](c1ccccc1)[C@H](c1ccccc1)N1CCCC1=O` [Example 85], the IC50 amounted to 3.6 µM.

For `O=C1CCCN1[C@@H](c1ccccc1)[C@H](OCc1cccc(Cl)c1)c1ccc(Cl)cc1` (racemic) [Example 40], the IC50 came out at 0.8 µM.

On to `CCCO[C@H](c1ccc(C#N)cc1)[C@H](c1ccc(F)cc1)N1CCCC1=O` (racemic) [Example 36], for which the IC50 worked out at 0.6 µM.

Regarding `O=C1CCCN1[C@@H](c1ccccc1)[C@H](OC1CC1)c1ccccc1` (racemic) [Example 32, 1S,2R-1-(Cyclopropoxy-1,2-diphenylethyl)pyrrolidin-2-one], the IC50 was found to be 0.6 µM.

Consider `O=C1CCCN1[C@@H](c1ccc(F)cc1)[C@H](OCc1ccc(Cl)cc1)c1ccc(F)c(F)c1` (racemic) [Example 101], for which the IC50 is 5.6 µM.

Take `N#Cc1ccc(O[C@@H](c2ccnc3ccccc23)[C@H](c2ccc(F)cc2)N2CCCC2=O)cc1` (racemic) [Example 109]: the IC50 came out at 9.6 µM.

Turning to `O=C1CCCN1[C@@H](c1ccc(F)cc1)[C@H](OCC1CC1)c1cccnc1` (racemic) [Example 58], the IC50 came to 1 µM.

As for `N#Cc1ccc(CO[C@H](c2ccc(F)c(F)c2)[C@H](c2ccc(F)cc2)N2CCCC2=O)cc1` (racemic) [Example 69], the IC50 was found to be 1.6 µM.

Consider `N#Cc1ccc(O[C@H](c2cccnc2)[C@H](c2cccc3cccnc23)N2CCCC2=O)cc1` (racemic) [Example 66], for which the IC50 stood at 2.3 µM.

For `O=C1CCCN1[C@@H](c1ccccc1)[C@H](OCC1CC1)c1ccncc1` (racemic) [Example 91], the IC50 is 4 µM.

As for `C=CO[C@H](c1ccc(F)c(F)c1)[C@H](c1ccc(F)cc1)N1CCCC1=O` [Example 121], the IC50 was found to be 0.9 µM.

With `CO[C@H](c1ccc(F)c(F)c1)[C@H](c1ccc(F)cc1)N1CCCC1=O` (racemic) [Example 87], the IC50 was determined as 4.2 µM.

`CCCO[C@H](c1ccc(F)cc1)[C@H](c1ccccc1)N1CCCC1=O` (racemic) [Example 20]: the IC50 is 0.3 µM.

As for `CCCO[C@H](c1ccccc1)[C@H](c1ccccc1)N1CCCC1=O` [Example 15], the IC50 worked out at 0.16 µM.

On to `O=C1CCCN1[C@@H](c1ccccc1)[C@H](Oc1ccccn1)c1ccccc1` (racemic) [Example 70], for which the IC50 was 2.3 µM.

Turning to `O=C1CCCN1[C@@H](c1ccc(F)cc1)[C@H](OC1CC1)c1ccc(F)c(F)c1` (racemic) [Example 49], the IC50 worked out at 0.5 µM.

For `O=C1CCCN1[C@@H](c1ccccn1)[C@H](OCCF)c1ccccc1` (racemic) [Example 104], the IC50 was 6.7 µM.

Regarding `CCCO[C@H](c1ccccn1)[C@H](c1ccccc1)N1CCCC1=O` (racemic) [Example 76], the IC50 came out at 2.7 µM.

`N#Cc1ccc(O[C@@H](c2cccc3ccccc23)[C@H](c2ccc(F)cc2)N2CCCC2=O)cc1` (racemic) [Example 89]: the IC50 came to 3.5 µM.

With `CC#CCO[C@H](c1ccc(F)c(F)c1)[C@H](c1ccc(F)cc1)N1CCCC1=O` (racemic) [Example 62], the IC50 worked out at 2.4 µM.

Turning to `CO[C@H](c1ccc(F)c(F)c1)[C@H](c1ccc(F)cc1)N1CCCCC1=O` (racemic) [Example 99], the IC50 amounted to 6.3 µM.

For `O=C1CCCN1[C@H](c1ccc(F)cc1)[C@H](OCCCC(F)(F)F)c1ccc(F)cc1` (racemic) [Example 43], the IC50 was 1.4 µM.

Turning to `N#Cc1ccc(O[C@H](c2ccc(F)c(F)c2)[C@H](c2cccnc2)N2CCCC2=O)cc1` (racemic) [Example 115], the IC50 is ~10 µM.

Take `N#Cc1ccc(O[C@H](c2cc(F)cc(F)c2)[C@H](c2ccc(F)cc2)N2CCCC2=O)cc1` (racemic) [Example 106]: the IC50 was found to be 8.3 µM.

`O=C1CCCN1[C@@H](c1ccc(F)cc1)[C@H](OCC1CC1)C1CCCCC1` (racemic) [Example 83]: the IC50 amounted to 1.8 µM.

For the compound `N#Cc1ccc(O[C@H](c2ccc(F)cc2)[C@H](c2cccc3cccnc23)N2CCCC2=O)cc1` (racemic) [Example 55], the IC50 was found to be 1.1 µM.

With `O=C1CCCN1[C@@H](c1cccnc1)[C@H](OCC1CC1)c1ccc(F)cc1` (racemic) [Example 16], the IC50 amounted to 0.8 µM.

On to `COc1ccc(CO[C@H](c2ccc(F)c(F)c2)[C@H](c2ccc(F)cc2)N2CCCC2=O)cc1` (racemic) [Example 48], for which the IC50 is 2.1 µM.

Turning to `CC1CCC(=O)N1[C@@H](c1ccc(F)cc1)[C@H](OCC1CC1)c1ccc(F)c(F)c1` (mixture of isomers) [Example 35], the IC50 was 0.5 µM.

On to `CCCO[C@@H](c1ccccc1)[C@@H](c1ccccc1)N1CCCC1=O` [Example 18], for which the IC50 is 0.4 µM.

For `N#Cc1ccc(O[C@H](c2ccc(C(F)(F)F)cc2)[C@H](c2ccc(F)cc2)N2CCCC2=O)cc1` (racemic) [Example 116], the IC50 is ~10 µM.

Regarding `N#Cc1ccc(O[C@H](c2ccccc2)[C@H](c2ccccn2)N2CCCC2=O)cc1` (racemic) [Example 96], the IC50 is 5.1 µM.

Turning to `COc1ccc(CO[C@H](c2ccc(Cl)cc2)[C@H](c2ccccc2)N2CCCC2=O)cc1` (racemic) [Example 60], the IC50 is 1.3 µM.

For `O=C1CCCCN1[C@@H](c1ccc(F)cc1)[C@H](OCC1CC1)c1ccc(F)c(F)c1` (racemic) [Example 14], the IC50 is 0.33 µM.

For `CO[C@H](c1ccc(F)cc1)[C@H](c1ccccc1)N1CCCC1=O` (racemic) [Example 77], the IC50 is 2.7 µM.

For the compound `O=C1CCCN1[C@@H](c1ccccc1)[C@H](OCCCC(F)(F)F)c1ccc(F)cc1` (racemic) [Example 51], the IC50 amounted to 0.9 µM.

As for `O=C1CCCN1[C@@H](c1cccc2cccnc12)[C@H](OCC1CC1)c1cccnc1` (racemic) [Example 119], the IC50 came out at 0.8 µM.

Consider `Cc1ccc([C@H]([C@H](OCC2CC2)c2ccc(F)cc2)N2CCCC2=O)s1` (racemic) [Example 17], for which the IC50 stood at 0.3 µM.

Turning to `N#Cc1ccc(O[C@H](c2ccc(F)cc2)[C@H](c2ccc(F)cc2)N2CCCC2=O)cc1` (racemic) [Example 92], the IC50 worked out at 3.8 µM.

Take `O=C1CCCN1[C@H](c1ccc(F)cc1)[C@@H](OCC1CC1)c1cccc2cccnc12` (racemic) [Example 39]: the IC50 came out at 1.1 µM.

As to `CC(OCC1CC1)(c1ccccc1)C(c1ccccc1)N1CCCC1=O` (centres unmarked) [Example 8, 1-(2-Cyclopropylmethoxy-1,2-diphenylpropyl)pyrrolidin-2-one], the IC50 came to 1.2 µM.

On to `O=C1CCCN1[C@H](c1ccc(F)cc1)[C@@H](OCC1CC1)c1cccc2ccccc12` (racemic) [Example 11, 1-[(1S′,2R′)-2-Cyclopropylmethoxy-1-(4-fluorophenyl)-2-naphthalen-1-ylethyl]pyrrolidin-2-one], for which the IC50 worked out at 0.2 µM.
